Data from patent US20220143079A1, “ORAL ADMINISTRATION OF SODIUM CHLORIDE TO PREVENT COMPLICATIONS ASSOCIATED WITH BOWEL CLEANSING WITH STIMULANT LAXATIVES” (SEAFORD PHARMACEUTICALS INC., priority 2019, published 2022).

System: colon of patients scheduled for colonoscopy
Assay: Quality of colon cleaning assessed by Boston Scale at colonoscopy
Type: in vivo
Conditions: within the claimed regimen, result in words
Description: A prospective, open-label study involving four patients scheduled for their regular colonoscopy exam was conducted (Canadian Phase Onward Inc., Toronto, Ontario. CA). […] In addition to the standard instructions not to eat food and to drink only clear liquids, the selected patients were instructed to do the following on the day before the colonoscopy was to be performed: 1. at 10:00 AM orally taking three bisacodyl pills (Dulcolax®, Boehringer Ingelheim, Ingelheim am Rhein, Germany) with water (chewing or crushing the pills was prohibited); 2. at 3:00 PM dissolving the contents of a first sachet containing sodium picosulfate/magnesium oxide/citric acid combination ([…]®, Recordati S.p.A, Milan, Italy) with cold water and ingesting the solution after carefully stirring the solution to insure that the sodium picosulfate/magnesium oxide/citric acid combination was dissolved completely; […] […] Upon arrival at the clinic on the day of the colonoscopy, the patient's weight was recorded and blood pressure was taken and recorded and an out-patient colonoscopy was performed on each patient (North York Endoscopy Centre Inc., Toronto, Ontario, CA). The quality of the colon cleaning was assessed using the Boston Scale which is a well-established way of identifying the degree of colon cleanliness.

## CC(=O)Oc1ccc(C(c2ccc(OC(C)=O)cc2)c2ccccn2)cc1 [bisacodyl, ρ,ρ-diacetoxy-diphenyl-2-pyridylmethane]
  observed cleansing effect of the regimen component: initial expulsion of the bulk of the fecal matter
